Measurements reported in patent US11566007B2, “Ras inhibitors” (Revolution Medicines, Inc., priority 2019, dated 2023).
Like-named read-outs stand apart in the source and are kept apart here.

Legend:
[1] = system: NCI-H358 cells (K-Ras G12C); assay: Potency assay: pERK in NCI-H358 cells; format: cell-based, human; settings: Homo sapiens, NCI-H358; H358 KRAS G12C; read-out: pERK EC50
Summary of the method: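 pERK decrease read by AlphaLISA SureFire p-ERK1/2 or In-Cell Western after 4 h compound exposure at 37 °C, 5% CO2.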

NCI-H358 (K-Ras G12C) = assay: CellTiter-Glo cell viability assay, NCI-H358; format: cell-based, human; settings: Homo sapiens, NCI-H358, 120 h, class symbols
Summary of the method: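 Compounds dispensed directly onto seeded K-Ras mutant cells; plates read on day 5 after ~30 min equilibration to room temperature, by CellTiter-Glo luminescence. Signal normalized as (sample/mean DMSO)×100, then fitted to a four-parameter logistic curve.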

[2] = NCI-H358, 5-day treatment, read-out: Additional H358 Cell Viability assay data (K-Ras G12C, IC50)
[3] = read-out: Additional H358 Cell Viability assay data (K-Ras G12C, IC50, uM), NCI-H358, 5-day treatment

| Structure (SMILES) | EC50 [1] [nM] | IC50 (NCI-H358 (K-Ras G12C); [2]) [µM] | IC50 (NCI-H358 (K-Ras G12C); [3]) [µM] |
| --- | --- | --- | --- |
| C=CC(=O)N1CC[C@H](C(=O)N(C)[C@H](C(=O)N[C@H]2Cc3cc(O)cc(c3)-c3ccc4c(c3)c(c(-c3cccnc3COCC)n4CC)CC(C)(C)COC(=O)[C@@H]3CCCN(N3)C2=O)C(C)C)C1 [Example A44] | < 5000 | 0.01 to 0.1 | – |
| C=CC(=O)N1CC[C@H](C(=O)N(C)[C@H](C(=O)N[C@H]2Cc3cc(O)cc(c3)-c3ccc4c(c3)c(c(-c3cccnc3)n4CC)CC(C)(C)COC(=O)[C@@H]3CCCN(N3)C2=O)C(C)C)C1 [Example A45] | < 5000 | 0.01 to 0.1 | – |
| CCn1c(-c2ccccc2CN(C)C)c2c3cc(ccc31)-c1cc(O)cc(c1)C[C@H](NC(=O)[C@H](C(C)C)N(C)C(=O)c1ccc(NC(=O)/C=C/CN(C)C)cn1)C(=O)N1CCC[C@H](N1)C(=O)OCC(C)(C)C2 [Example A46] | < 5000 | > 1 | – |
| CCn1c(-c2ccccc2CN(C)C)c2c3cc(ccc31)-c1cc(O)cc(c1)C[C@H](NC(=O)[C@H](C(C)C)N(C)C(=O)[C@H]1CCN(C(=O)/C=C/CN(C)C)C1)C(=O)N1CCC[C@H](N1)C(=O)OCC(C)(C)C2 [Example A47] | < 5000 | 0.01 to 0.1 | – |
| C=CC(=O)N1CC[C@H](C(=O)N(C)[C@H](C(=O)N[C@H]2Cc3cc(O)cc(c3)-c3ccc4c(c3)c(c(-c3ccc5c(c3)OCCN5C)n4CC)CC(C)(C)COC(=O)[C@@H]3CCCN(N3)C2=O)C(C)C)C1 [Example A50] | < 5000 | 0.1 to 1 | – |
| C=CC(=O)N1CC[C@H](C(=O)N(C)[C@H](C(=O)N[C@H]2Cc3cc(O)cc(c3)-c3ccc4c(c3)c(c(-c3ccc(CN(C)C)cc3COC)n4CC)CC(C)(C)COC(=O)[C@@H]3CCCN(N3)C2=O)C(C)C)C1 [Example A51] | < 5000 | 0.01 to 0.1 | – |
| C=CC(=O)N1C[C@H](C)[C@H](C(=O)N(C)[C@H](C(=O)N[C@H]2Cc3cc(O)cc(c3)-c3ccc4c(c3)c(c(-c3ccccc3CN(C)C)n4CC)CC(C)(C)COC(=O)[C@@H]3CCCN(N3)C2=O)C(C)C)C1 [Example A52] | < 5000 | 0.01 to 0.1 | – |
| CCn1c(-c2cccnc2COC)c2c3cc(ccc31)-c1cc(O)cc(c1)C[C@H](NC(=O)[C@H](C(C)C)N(C)C(=O)[C@H]1CCN(C(=O)/C=C/CN(C)C)C1)C(=O)N1CCC[C@H](N1)C(=O)OCC(C)(C)C2 [Example A54, (2S)-2-{1-[(3S)-1-[(2E)-4-(dimethylamino)but-2-enoyl]pyrrolidin-3-yl]-N-methylformamido}-N-[(8S,14S)-22-ethyl-4-hydroxy-21-[2-(methoxymethyl)pyridin-3-yl]-18,18-dimethyl-9,15-dioxo-16-oxa-10,22,28-triazapentacyclo[18.5.2.1^2,^6.1^10,^14.0^23,^27]nonacosa-1(26),2,4,6(29),20,23(27),24-heptaen-8-yl]-3-methylbutanamide] | < 5000 | 0.01 to 0.1 | – |
| C=CC(=O)N1CC[C@H](C(=O)N(C)[C@H](C(=O)N[C@H]2Cc3cc(O)cc(c3)-c3ccc4c(c3)c(c(-c3cccnc3COC)n4CC)CC(C)(C)COC(=O)[C@@H]3CCCN(N3)C2=O)C2CCCC2)C1 [Example A55] | < 5000 | < 0.01 | – |
| C=CC(=O)N1C[C@H](C)[C@H](C(=O)N(C)[C@H](C(=O)N[C@H]2Cc3cc(O)cc(c3)-c3ccc4c(c3)c(c(-c3cccnc3COC)n4CC)CC(C)(C)COC(=O)[C@@H]3CCCN(N3)C2=O)C(C)C)C1 [Example A56] | < 5000 | – | < 0.01 |
| C=CC(=O)N1C[C@H](C)[C@H](C(=O)N(C)[C@H](C(=O)N[C@H]2Cc3cc(O)cc(c3)-c3ccc4c(c3)c(c(-c3cccnc3COC)n4CC)CC(C)(C)COC(=O)[C@@H]3CCCN(N3)C2=O)C2CCCC2)C1 [Example A57] | < 5000 | < 0.01 | – |
| C=CC(=O)N1CC[C@H](C(=O)N(C)[C@H](C(=O)N[C@H]2Cc3cc(O)cc(c3)-c3ccc4c(c3)c(c(C3=C(COC)COCC3)n4CC)CC(C)(C)COC(=O)[C@@H]3CCCN(N3)C2=O)C(C)C)C1 [Example A58] | < 5000 | 0.01 to 0.1 | – |
| C=CC(=O)N1CC[C@H](C(=O)N(C)[C@H](C(=O)N[C@H]2Cc3cc(OC(C)=O)cc(c3)-c3ccc4c(c3)c(c(-c3ccccc3CN(C)C)n4CC)CC(C)(C)COC(=O)[C@@H]3CCCN(N3)C2=O)C(C)C)C1 [Example A59] | < 5000 | – | 0.1 to 1 |
| C=CC(=O)N1CC[C@H](C(=O)N(C)[C@H](C(=O)N[C@H]2Cc3cc(O)cc(c3)-c3ccc4c(c3)c(c(-c3cccnc3N3CC(OC)C3)n4CC)CC(C)(C)COC(=O)[C@@H]3CCCN(N3)C2=O)C(C)C)C1 [Example A60] | < 5000 | 0.01 to 0.1 | – |
| C=CC(=O)N1CC[C@H](C(=O)N(C)[C@H](C(=O)N[C@H]2Cc3cc(O)cc(c3)-c3ccc4c(c3)c(c(-c3cncnc3)n4CC)CC(C)(C)COC(=O)[C@@H]3CCCN(N3)C2=O)C(C)C)C1 [Example A61] | < 5000 | 0.01 to 0.1 | – |
| C=CC(=O)N1CC[C@H](C(=O)N(C)[C@H](C(=O)N[C@H]2Cc3cc(O)cc(c3)-c3ccc4c(c3)c(c(-c3cncc(C#N)c3)n4CC)CC(C)(C)COC(=O)[C@@H]3CCCN(N3)C2=O)C(C)C)C1 [Example A62] | < 5000 | 0.01 to 0.1 | – |
| C=CC(=O)N1CC[C@@]2(CCCN([C@H](C(=O)N[C@H]3Cc4cc(O)cc(c4)-c4ccc5c(c4)c(c(-c4ccccc4CCOC)n5CC)CC(C)(C)COC(=O)[C@@H]4CCCN(N4)C3=O)C(C)C)C2=O)C1 [Example A63] | < 5000 | 0.1 to 1 | – |
| C=CC(=O)N1CC[C@H](C(=O)N(C)[C@H](C(=O)N[C@H]2Cc3cc(O)cc(c3)-c3ccc4c(c3)c(c(C3=C(COC)CCCC3)n4CC)CC(C)(C)COC(=O)[C@@H]3CCCN(N3)C2=O)C(C)C)C1 [Example A64] | < 5000 | 0.01 to 0.1 | – |
| C=CC(=O)N1CC[C@H](C(=O)N(C)[C@H](C(=O)N[C@H]2Cc3cc(O)cc(c3)-c3ccc4c(c3)c(c([C@@H]3CC=CN=C3COC)n4CC)CC(C)(C)COC(=O)[C@@H]3CCCN(N3)C2=O)C(C)C)C1 [Example A65] | < 5000 | 0.1 to 1 | – |
| C=CC(=O)N1CC[C@H](C(=O)N(C)[C@H](C(=O)N[C@H]2Cc3cc(O)cc(c3)-c3ccc4c(c3)c(c(-c3cccnc3COC)n4C)CC(C)(C)COC(=O)[C@@H]3CCCN(N3)C2=O)C(C)C)C1 [Example A66] | < 5000 | 0.01 to 0.1 | – |
| CCn1c(-c2cccnc2COC)c2c3cc(ccc31)-c1cc(O)cc(c1)C[C@H](NC(=O)[C@H](C(C)C)N(C)C(=O)c1ccc(NC(=O)/C=C/CN(C)C)cn1)C(=O)N1CCC[C@H](N1)C(=O)OCC(C)(C)C2 [Example A67, (2E)-4-(dimethylamino)-N-(6-{[(1S)-1-{[(8S,14S)-22-ethyl-4-hydroxy-21-[2-(methoxymethyl)pyridin-3-yl]-18,18-dimethyl-9,15-dioxo-16-oxa-10,22,28-triazapentacyclo[18.5.2.1^2,^6.1^10,^14.0^23,^27]nonacosa-1(26),2,4,6(29),20,23(27),24-heptaen-8-yl]carbamoyl}-2-methylpropyl](methyl)carbamoyl}pyridin-3-yl)but-2-enamide] | < 5000 | 0.1 to 1 | – |
| C=CC(=O)N1CC[C@@]2(CCN([C@H](C(=O)N[C@H]3Cc4cc(O)cc(c4)-c4ccc5c(c4)c(c(-c4ccccc4CCOC)n5CC)CC(C)(C)COC(=O)[C@@H]4CCCN(N4)C3=O)C(C)C)C2=O)C1 [Example A68] | < 5000 | 0.1 to 1 | – |
| C=CS(=O)(=O)N1CC[C@H](C(=O)N(C)[C@H](C(=O)N[C@H]2Cc3cc(O)cc(c3)-c3ccc4c(c3)c(c(-c3cccnc3COC)n4CC)CC(C)(C)COC(=O)[C@@H]3CCCN(N3)C2=O)C(C)C)C1 [Example A69] | < 5000 | 0.01 to 0.1 | – |
| C=CC(=O)N1CC(C(=O)N(C)[C@H](C(=O)N[C@H]2Cc3cc(O)cc(c3)-c3ccc4c(c3)c(c(-c3cccnc3COC)n4CC)CC(C)(C)COC(=O)[C@@H]3CCCN(N3)C2=O)C(C)C)C1 [Example A70] | < 5000 | 0.01 to 0.1 | – |
| CCn1c(-c2cccnc2COC)c2c3cc(ccc31)-c1cc(O)cc(c1)C[C@H](NC(=O)[C@H](C(C)C)N(C)C(=O)C1CN(C(=O)/C=C/CN(C)C)C1)C(=O)N1CCC[C@H](N1)C(=O)OCC(C)(C)C2 [Example A71, (2S)-2-(1-{1-[(2E)-4-(dimethylamino)but-2-enoyl]azetidin-3-yl}-N-methylformamido)-N-[(8S,14S)-22-ethyl-4-hydroxy-21-[2-(methoxymethyl)pyridin-3-yl]-18,18-dimethyl-9,15-dioxo-16-oxa-10,22,28-triazapentacyclo[18.5.2.1^2,^6.1^10,^14.0^23,^27]nonacosa-1(26),2,4,6(29),20,23(27),24-heptaen-8-yl]-3-methylbutanamide] | < 5000 | 0.1 to 1 | – |
| C=CC(=O)N1CC[C@H](C(=O)N(C)[C@H](C(=O)N[C@H]2Cc3cc(O)cc(c3)-c3ccc4c(c3)c(c(-c3cncc(CN(C)C)c3)n4CC)CC(C)(C)COC(=O)[C@@H]3CCCN(N3)C2=O)C(C)C)C1 [Example A73] | < 5000 | 0.01 to 0.1 | – |
| C=CC(=O)N1CC[C@H](C(=O)N(C)[C@H](C(=O)N[C@H]2Cc3cc(O)cc(c3)-c3ccc4c(c3)c(c(-c3cnccc3C)n4CC)CC(C)(C)COC(=O)[C@@H]3CCCN(N3)C2=O)C(C)C)C1 [Example A77] | < 5000 | 0.01 to 0.1 | – |
| CCn1c(-c2ccccc2COC)c2c3cc(ccc31)-c1cc(O)cc(c1)C[C@H](NC(=O)[C@H](C(C)C)N(C)C(=O)[C@H]1CCN(C(=O)/C=C/CN(C)C)C1)C(=O)N1CCC[C@H](N1)C(=O)OCC(C)(C)C2 [Example A79] | < 5000 | 0.01 to 0.1 | – |
| C=CC(=O)N1CC[C@H](C(=O)N(C)[C@H](C(=O)N[C@H]2Cc3cc(O)cc(c3)-c3ccc4c(c3)c(c(-c3c(CCOC)cccc3OC)n4CC)CC(C)(C)COC(=O)[C@@H]3CCCN(N3)C2=O)C(C)C)C1 [Example A80] | < 5000 | 0.1 to 1 | – |
